Values of other authors as cited in publication PMC2764006 (Journal of molecular biology, 2009).

Conditions: single-molecule FRET

In the case of polyproline, the persistence length lp is listed as 44 Å.
